Columns and labels:
[1] = system: CT26 colon carcinoma cells; assay: CT26 tumor model, BNT411 alone and with oxaliplatin (Example 4); format: in vivo, mouse
Experimental: FIG. 5. Anti-tumoral efficacy of BNT411 alone and in combination with oxaliplatin in a tumor mouse model. Mice (n=12 or 13 per group) subcutaneously inoculated with 2.5×10^5 CT26 colon carcinoma cells were used as tumor mouse model. Oxaliplatin was administered intraperitoneally (i.p.) (5 mg/kg, four times with 4 to 5 days between injections). BNT411 was administered i.v. at a dose level of 3 mg/kg eight times with 2 to 5 days interval between injections and at least 2 days after oxaliplatin therapy. Anti-tumor efficacy was evaluated by group mean tumor volumes in test versus control groups (vehicle only) on days 33 and 42 (at least 50% of test and control animals alive). IFNα levels in plasma were analyzed 1 h after first BNT411 administration and gp70+ T-cell populations in blood were analyzed on days 34 and 41. (A) Dosing schedule. (B) Graph showing the tumor volumes vs. days after inoculation. Group mean tumor volumes (±SEM (standard error of the mean)) for all live animals are shown. Treatment groups included nine to ten mice. Additionally, tumor volumes of animals that were euthanized due to tumor load were carried forward for as long as they were larger than the group median tumor volume (last observation carried forward (LOCF) values). Curves were discontinued for groups with less than 50% animals alive. (C) Graph showing IFNα serum level 60 min after first injection for the 4 groups (control (vehicle); BNT411 alone; oxaliplatin alone; BNT411 and oxaliplatin). IFNα levels in control and test groups are shown by vertical bars (±SEM), Statistical significance between groups is indicated by horizontal lines. P-value summary: ****=p≤0.0001; ***=p≤0.001; **=p≤0.01, […].
(§1) Serum levels of IFNα were measured by sandwich ELISA (Pbl Assay Systems) according to manufacturer's instructions.
BALB/c mice were inoculated s.c. with 2.5×10^5−5×10^5 CT26-WT into the flank, respectively. Once tumors reached palpable sizes, mice were randomly divided into treatment and control groups. Tumor volume was measured unblinded with a caliper and calculated using the formula (a×b^2)/2 (a being the largest and b being the smallest diameter of the tumor). Tumor growth was documented as mean tumor size with standard error disregarding single distant outliers. Treatment was initiated after 7-10 d with tumors having reached an average volume of about 10 mm^3. […]
Oxaliplatin was administered intraperitoneally (i.p.) (5 mg/kg, four times with 4 to 5 days between injections). […] Anti-tumor efficacy was evaluated by group mean tumor volumes in test versus control groups (vehicle only) on study days 33 and 42, (at least 50% of test and control animals alive). IFNα levels in plasma were analyzed 1 h after first BNT411 administration and gp70+ T-cell populations in blood on study days 34 and 41.

BALB/c mice = assay: In vivo cytokine release in BALB/c mice (IFNa ELISA); design: species or system mouse; conditions: 3 mg/kg retro-orbital vs 5, 10, 15 mg/kg; blood 1 h after application
Experimental: FIG. 2. In vivo cytokine release in BALB/c mice upon administration of BNT411. Female BALB/c mice were retro-orbitally administered with doses of 3, 5, 10, and 15 mg/kg BNT411. Blood samples were drawn 1 h after compound application and analyzed with mouse IFNa ELISA.
as §1
Female BALB/c mice were retro-orbitally administered with doses of 3, 5, 10, and 15 mg/kg BNT411. Blood samples were drawn 1 h after compound application and analyzed with mouse IFNa ELISA.

Human whole blood = assay: Cytokine release in human whole blood treated in vitro (CBA); format: cell-based
Experimental: FIG. 7. Release of certain cytokines upon treatment of whole blood from human donors with BNT411 at various concentrations. Whole blood drawn from healthy human volunteers was treated in vitro with BNT411 to investigate the induction of the following cytokines/chemokines: IFNα, IP-10, IL-6, and TNFα. BNT411 concentrations ranging from 0.1 nM (1×) to 7.5 μM (75000×). The fold increase to baseline is shown for each cytokine and BNT411 concentration tested.
After performing a serial dilution of the test compounds (such as BNT411), 5 μL of each sample is transferred/pipetted to single wells of a 96-well-plate. As negative control, plasma which has been prepared from whole blood of each donor is used. Subsequently, 245 μL of RPMI-medium is added to each well, leading to a 1:50 dilution of each sample, named spiking solutions. The heparinized whole blood is pipetted to separate 96-well-plate. After seeding whole blood, the prepared spiking solutions are added: 190 μL of whole blood is seeded in each well and 10 μL of spiking solutions is added to get a final volume of 200 μL per well and additional 1:20 dilution of all samples. Finally, the plates are incubated at 37° C. and 5% CO2. After 24 h incubation the plates are centrifuged at 500×g for 5 min. The plasma of all samples is harvested, transferred to a new 96-well-plate and frozen at −15° C. to −25° C. until performing the CBA, but at least 3 h.
The CBA is performed with the frozen/thawed plasma samples according to the manufacturer's instructions for ProCarta multiplex kits. For evaluation of cytokine concentrations, assay duplicates of all samples are measured by using the luminex system. After checking standard curves with the instrument control system (Bio-Plex Manager 4.1.1) the raw data are transferred to excel. Graphical analysis is performed with GraphPad Prism 6.
Human whole blood was obtained from healthy donors and treated in vitro with BNT411 (concentration range: 0.1 nM to […]). 24 h after stimulation secretion of several cytokines, including IFNα, IP-10, IL-6, and TNFα, was analyzed by a multiplexed CBA.

COCCc1nc2c(N)nc3ccccc3c2n1CCCCN(C(C)=O)C1CCOCC1 [BNT411]
anti-tumor efficacy, T/C value ([1]; BNT411 3 mg/kg i.v. eight times, oxaliplatin 5 mg/kg i.p. four times, group mean tumor volumes test vs control): 65.8%
effect on tumor growth (conclusion) ([1]; mouse, in vivo): anti-tumor activity
IFNα levels, BNT411 monotherapy group vs combination of BNT411 and oxaliplatin ([1]; two-way ANOVA): statistically significantly higher
IFNa secretion (BALB/c mice): stronger IFNa secretion as compared to higher BNT411 doses
concentrations required for inducing secretion of pyrogenic proinflammatory cytokines (e.g., TNFα) relative to IFNα (Human whole blood; FIG. 7): up to two orders of magnitude higher
IFNα secretion induced at fold lower concentrations than needed for induction of IL-6, TNFα, and IL-10 (Human whole blood; human whole blood, 24 h): 5- to 25 fold
concentration at which IL-6, TNFa and IL-10 start to be induced (Human whole blood; human whole blood, 24 h): about 0.06 μM
concentration at which significant IFNα release was induced (Human whole blood; human whole blood, 24 h): 0.012 µM
concentration for maximal induction of IFNα, fold lower than for maximal induction of IL-6, TNFα, and IL-10 (Human whole blood; human whole blood, 24 h): 25- to 100 fold

— patent publication US20240415828A1, “TLR7 AGONIST AND COMBINATIONS FOR CANCER TREATMENT” (BIONTECH SE, priority 2021, published 2024)
